Data published in patent US20260022143A1, “Cyclic Peptide Inhibitors of IL-23” (JANSSEN PHARMACEUTICA NV, priority 2022, published 2026).
Structures can show the parent of a compound that is named as a salt. Starred links: 1 amine or outer side, 2 acyl side, 3 side chain; linkers in the order of their positions; H or OH if unused. Positions of bridges follow the written chain, without caps; N, C: chain ends. Non-standard residues stand in square brackets, D forms with d. Residues, ends and D or L forms follow the SMILES beside them. *: point of attachment. X68 = COCCOCCOCCOCCOCCOCCC(=O)N(CCCC[C@@H](N[*:1])C(=O)[*:2])C(C)=O; Me3N+(CH2)2O(CH2)2O(CH2)2CO = C[N+](C)(C)CCOCCOCCC(=O)*; Trp(7-Me) = Cc1cccc2c(C[C@H](N)C(=O)O)c[nH]c12; Hexanoyl(6-NMe3+) = C[N+](C)(C)CCCCCC(=O)*; X23 = Cn1nnc(CC[C@H](N[*:1])C(=O)[*:2])n1; Dab(NMeAc) = CC(=O)N(C)CC[C@H](N)C(=O)O; X29 = O=C([C@H](CCn1ncnn1)N[*:1])[*:2]; 2Nal = N[C@@H](Cc1ccc2ccccc2c1)C(=O)O; AEF = NCCOc1ccc(C[C@H](N)C(=O)O)cc1; 3Pal = N[C@@H](Cc1cccnc1)C(=O)O; Lys(Me) = CNCCCC[C@H](N)C(=O)O; X7 = COCCOCCOCCOCCOCCOCCC(=O)*; Pen = CC(C)(S)[C@H](N)C(=O)O; Thp = NC1(C(=O)O)CCOCC1; Me2NCH2CH2 = CN(C)CC*; Tfa = O=C(C(F)(F)F)*; Sar = CNCC(=O)O

Assay: Exposed Polar Surface Area (EPSA)
Format: physicochemical
Details: SFC on Chirex 3014 column; sample 1 mM DMSO stock; read-out: EPSA
Method in brief: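 SFC retention on a Chirex 3014 (S-valine/(R)-1-(α-naphthyl)ethylamine) column at 35 °C, 4 mL/min, 14 MPa outlet, 5–60% methanol/20 mM ammonium formate gradient in CO2. Retention times converted to EPSA (Å²) via linear calibration with 8 standards; samples from 1 mM DMSO stock, run in duplicate.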

| Structure (SMILES) | EPSA |
| --- | --- |
| CC(=O)N(C)CC[C@@H]1NC(=O)[C@H](Cc2c[nH]c3c(C)cccc23)NC(=O)[C@H]([C@@H](C)O)NC(=O)[C@H](CC(N)=O)NC(=O)[C@@H](NC(=O)C(F)(F)F)C(C)(C)SSC(C)(C)[C@@H](C(=O)N[C@@H](Cc2ccc(OCCN)cc2)C(=O)N[C@@H](Cc2ccc3ccccc3c2)C(=O)NC2(C(=O)N[C@@H](CCC(=O)N(C)C)C(=O)N[C@@H](CC(N)=O)C(=O)N[C@@H](Cc3cccnc3)C(=O)N(C)CC(N)=O)CCOCC2)NC1=O [compound 75] (Tfa-[Pen]NT[Trp(7-Me)][Dab(NMeAc)][Pen][AEF][2Nal][Thp]E(NMe2)N[3Pal][Sar]-NH2; disulfide 1-6) | 157 A^2 |
| CC(=O)NCCCC[C@@H]1NC(=O)[C@H](Cc2c[nH]c3c(C)cccc23)NC(=O)[C@H]([C@@H](C)O)NC(=O)[C@H](CC(N)=O)NC(=O)[C@@H](NC(=O)C(F)(F)F)C(C)(C)SSC(C)(C)[C@@H](C(=O)N[C@@H](Cc2ccc(OCCN)cc2)C(=O)N[C@@H](Cc2ccc3ccccc3c2)C(=O)NC2(C(=O)N[C@@H](CCc3nnn(C)n3)C(=O)N[C@@H](CC(N)=O)C(=O)N[C@@H](Cc3cccnc3)C(=O)N(C)CC(N)=O)CCOCC2)NC1=O [compound 76] (Tfa-[Pen]NT[Trp(7-Me)]K(Ac)[Pen][AEF][2Nal][Thp][X23]N[3Pal][Sar]-NH2; disulfide 1-6) | 161 A^2 |
| CC(=O)NCCCC[C@@H]1NC(=O)[C@H](Cc2c[nH]c3c(C)cccc23)NC(=O)[C@H]([C@@H](C)O)NC(=O)[C@H](CC(N)=O)NC(=O)[C@@H](NC(=O)C(F)(F)F)C(C)(C)SSC(C)(C)[C@@H](C(=O)N[C@@H](Cc2ccc(OCCN)cc2)C(=O)N[C@@H](Cc2ccc3ccccc3c2)C(=O)NC2(C(=O)N[C@@H](CCn3ncnn3)C(=O)N[C@@H](CC(N)=O)C(=O)N[C@@H](Cc3cccnc3)C(=O)N(C)CC(N)=O)CCOCC2)NC1=O [compound 77] (Tfa-[Pen]NT[Trp(7-Me)]K(Ac)[Pen][AEF][2Nal][Thp][X29]N[3Pal][Sar]-NH2; disulfide 1-6) | 161 A^2 |
| COCCOCCOCCOCCOCCOCCC(=O)N(CCCC[C@H]1NC(=O)[C@H](Cc2c[nH]c3c(C)cccc23)NC(=O)[C@H]([C@@H](C)O)NC(=O)[C@H](CC(N)=O)NC(=O)[C@@H](NC(C)=O)C(C)(C)SSC(C)(C)[C@@H](C(=O)N[C@@H](Cc2ccc(OCCN)cc2)C(=O)N[C@@H](Cc2ccc3ccccc3c2)C(=O)NC2(C(=O)N[C@@H](CCCCNC(C)=O)C(=O)N[C@@H](CC(N)=O)C(=O)N[C@@H](Cc3cccnc3)C(=O)N(C)CC(N)=O)CCOCC2)NC1=O)C(C)=O [compound 78] (Ac-[Pen]NT[Trp(7-Me)][X68][Pen][AEF][2Nal][Thp]K(Ac)N[3Pal][Sar]-NH2; disulfide 1-6) | 157 A^2 |
| CC(=O)N(C)CCCC[C@@H]1NC(=O)[C@H](Cc2c[nH]c3c(C)cccc23)NC(=O)[C@H]([C@@H](C)O)NC(=O)[C@H](CC(=O)N(C)C)NC(=O)[C@@H](NC(=O)C(F)(F)F)C(C)(C)SSC(C)(C)[C@@H](C(=O)N[C@@H](Cc2ccc(OCCN(C)C)cc2)C(=O)N[C@@H](Cc2ccc3ccccc3c2)C(=O)NC2(C(=O)N[C@@H](CCC(=O)N(C)C)C(=O)N[C@@H](CC(N)=O)C(=O)N[C@@H](Cc3cccnc3)C(=O)N(C)CC(N)=O)CCOCC2)NC1=O [compound 79, CF3CO-Pen(3)-N(N(Me)2)-T-7MeW-K(NMeAc)-Pen(3)-AEF(N(Me)2)-2Nal-THP-Q(N(Me)2)-N-3Pya-Sar-CONH2] (Tfa-[Pen]D(NMe2)T[Trp(7-Me)][Lys(Me)](Ac)[Pen]Y(Me2NCH2CH2)[2Nal][Thp]E(NMe2)N[3Pal][Sar]-NH2; disulfide 1-6 (inferred)) | 144 A^2 |
| CC(=O)NCCCC[C@@H]1NC(=O)[C@H](Cc2c[nH]c3c(C)cccc23)NC(=O)[C@H]([C@@H](C)O)NC(=O)[C@H](CC(N)=O)NC(=O)[C@@H](NC(=O)CCCCC[N+](C)(C)C)C(C)(C)SSC(C)(C)[C@@H](C(=O)N[C@@H](Cc2ccc(OCCN)cc2)C(=O)N[C@@H](Cc2ccc3ccccc3c2)C(=O)NC2(C(=O)N[C@@H](CCC(=O)O)C(=O)N[C@@H](CC(N)=O)C(=O)N[C@@H](Cc3cccnc3)C(=O)N(C)CC(N)=O)CCOCC2)NC1=O [compound 81] ({Hexanoyl(6-NMe3+)}-[Pen]NT[Trp(7-Me)]K(Ac)[Pen][AEF][2Nal][Thp]EN[3Pal][Sar]-NH2; disulfide 1-6 (inferred)) | 173 A^2 |
| CC(=O)NCCCC[C@@H]1NC(=O)[C@H](Cc2c[nH]c3c(C)cccc23)NC(=O)[C@H]([C@@H](C)O)NC(=O)[C@H](CC(N)=O)NC(=O)[C@@H](NC(=O)[C@@H](CCCCNC(=O)CCCCC[N+](C)(C)C)NC(C)=O)C(C)(C)SSC(C)(C)[C@@H](C(=O)N[C@@H](Cc2ccc(OCCN)cc2)C(=O)N[C@@H](Cc2ccc3ccccc3c2)C(=O)NC2(C(=O)N[C@@H](CCC(=O)O)C(=O)N[C@@H](CC(N)=O)C(=O)N[C@@H](Cc3cccnc3)C(=O)N(C)CC(N)=O)CCOCC2)NC1=O [compound 83] (Ac-[dK](Hexanoyl(6-NMe3+))[Pen]NT[Trp(7-Me)]K(Ac)[Pen][AEF][2Nal][Thp]EN[3Pal][Sar]-NH2; disulfide 2-7 (inferred)) | 167 A^2 |
| CC(=O)NCCCC[C@@H]1NC(=O)[C@H](Cc2c[nH]c3c(C)cccc23)NC(=O)[C@H]([C@@H](C)O)NC(=O)[C@H](CC(N)=O)NC(=O)[C@@H](NC(=O)[C@@H](CCCCNC(=O)CCOCCOCC[N+](C)(C)C)NC(C)=O)C(C)(C)SSC(C)(C)[C@@H](C(=O)N[C@@H](Cc2ccc(OCCN)cc2)C(=O)N[C@@H](Cc2ccc3ccccc3c2)C(=O)NC2(C(=O)N[C@@H](CCC(=O)O)C(=O)N[C@@H](CC(N)=O)C(=O)N[C@@H](Cc3cccnc3)C(=O)N(C)CC(N)=O)CCOCC2)NC1=O [compound 84] (Ac-[dK](Me3N+(CH2)2O(CH2)2O(CH2)2CO)[Pen]NT[Trp(7-Me)]K(Ac)[Pen][AEF][2Nal][Thp]EN[3Pal][Sar]-NH2; disulfide 2-7) | 166 A^2 |
| CC(=O)NCCCC[C@@H]1NC(=O)[C@H](Cc2c[nH]c3c(C)cccc23)NC(=O)[C@H]([C@@H](C)O)NC(=O)[C@H](CC(N)=O)NC(=O)[C@@H](NC(C)=O)C(C)(C)SSC(C)(C)[C@@H](C(=O)N[C@@H](Cc2ccc(OCCN)cc2)C(=O)N[C@@H](Cc2ccc3ccccc3c2)C(=O)NC2(C(=O)N[C@@H](CCCCNC(=O)CCCCC[N+](C)(C)C)C(=O)N[C@@H](CC(N)=O)C(=O)N[C@@H](Cc3cccnc3)C(=O)N(C)CC(N)=O)CCOCC2)NC1=O [compound 85] (Ac-[Pen]NT[Trp(7-Me)]K(Ac)[Pen][AEF][2Nal][Thp]K(Hexanoyl(6-NMe3+))N[3Pal][Sar]-NH2; disulfide 1-6) | 151 A^2 |
| CC(=O)NCCCC[C@@H]1NC(=O)[C@H](Cc2c[nH]c3c(C)cccc23)NC(=O)[C@H]([C@@H](C)O)NC(=O)[C@H](CC(N)=O)NC(=O)[C@@H](NC(C)=O)C(C)(C)SSC(C)(C)[C@@H](C(=O)N[C@@H](Cc2ccc(OCCN)cc2)C(=O)N[C@@H](Cc2ccc3ccccc3c2)C(=O)NC2(C(=O)N[C@@H](CCCCNC(=O)CCOCCOCC[N+](C)(C)C)C(=O)N[C@@H](CC(N)=O)C(=O)N[C@@H](Cc3cccnc3)C(=O)N(C)CC(N)=O)CCOCC2)NC1=O [compound 86] (Ac-[Pen]NT[Trp(7-Me)]K(Ac)[Pen][AEF][2Nal][Thp]K(Me3N+(CH2)2O(CH2)2O(CH2)2CO)N[3Pal][Sar]-NH2; disulfide 1-6) | 150 A^2 |

Now from value to molecule:

| EPSA | Structure (SMILES) |
| --- | --- |
| 158 A^2 | CC(=O)NCCCC[C@@H]1NC(=O)[C@H](Cc2c[nH]c3c(C)cccc23)NC(=O)[C@H]([C@@H](C)O)NC(=O)[C@H](CC(N)=O)NC(=O)[C@@H](NC(=O)[C@@H](CCCCNC(=O)CCOCCOCC[N+](C)(C)C)NC(C)=O)C(C)(C)SSC(C)(C)[C@@H](C(=O)N[C@@H](Cc2ccc(OCCN)cc2)C(=O)N[C@@H](Cc2ccc3ccccc3c2)C(=O)NC2(C(=O)N[C@@H](CCCCNC(C)=O)C(=O)N[C@@H](CC(N)=O)C(=O)N[C@@H](Cc3cccnc3)C(=O)N(C)CC(N)=O)CCOCC2)NC1=O [compound 88] (Ac-[dK](Me3N+(CH2)2O(CH2)2O(CH2)2CO)[Pen]NT[Trp(7-Me)]K(Ac)[Pen][AEF][2Nal][Thp]K(Ac)N[3Pal][Sar]-NH2; disulfide 2-7) |
| 160 A^2 | CC(=O)NCCCC[C@@H]1NC(=O)[C@H](Cc2c[nH]c3c(C)cccc23)NC(=O)[C@H]([C@@H](C)O)NC(=O)[C@H](CC(N)=O)NC(=O)[C@@H](NC(=O)CCCCC[N+](C)(C)C)C(C)(C)SSC(C)(C)[C@@H](C(=O)N[C@@H](Cc2ccc(OCCN)cc2)C(=O)N[C@@H](Cc2ccc3ccccc3c2)C(=O)NC2(C(=O)N[C@@H](CCCCNC(C)=O)C(=O)N[C@@H](CC(N)=O)C(=O)N[C@@H](Cc3cccnc3)C(=O)N(C)CC(N)=O)CCOCC2)NC1=O [compound 89] ({Hexanoyl(6-NMe3+)}-[Pen]NT[Trp(7-Me)]K(Ac)[Pen][AEF][2Nal][Thp]K(Ac)N[3Pal][Sar]-NH2; disulfide 1-6 (inferred)) |
| 145 A^2 | Cc1cccc2c(C[C@@H]3NC(=O)[C@H]([C@@H](C)O)NC(=O)[C@H](CC(=O)N(C)C)NC(=O)[C@@H](NC(=O)CCCCC[N+](C)(C)C)C(C)(C)SSC(C)(C)[C@@H](C(=O)N[C@@H](Cc4ccc(OCCN(C)C)cc4)C(=O)N[C@@H](Cc4ccc5ccccc5c4)C(=O)NC4(C(=O)N[C@@H](CCC(=O)N(C)C)C(=O)N[C@@H](CC(N)=O)C(=O)N[C@@H](Cc5cccnc5)C(=O)N(C)CC(=O)N(C)C)CCOCC4)NC(=O)[C@H](CCC(=O)N(C)C)NC3=O)c[nH]c12 [compound 91, 5cpaCO-Pen(3)-N(N(Me)2)-T-7MeW-Q(N(Me)2)-Pen(3)-AEF(N(Me)2)-2Nal-THP-Q(N(Me)2)-N-3Pya-Sar-CON(Me)2] ({Hexanoyl(6-NMe3+)}-[Pen]D(NMe2)T[Trp(7-Me)]E(NMe2)[Pen]Y(Me2NCH2CH2)[2Nal][Thp]E(NMe2)N[3Pal][Sar]-NMe2; disulfide 1-6) |
| 151 A^2 | COCCOCCOCCOCCOCCOCCC(=O)N(C)CCCC[C@H](NC(=O)C1(NC(=O)[C@H](Cc2ccc3ccccc3c2)NC(=O)[C@H](Cc2ccc(OCCN)cc2)NC(=O)[C@H]2NC(=O)[C@H](CCCCNC(C)=O)NC(=O)[C@H](Cc3c[nH]c4c(C)cccc34)NC(=O)[C@H]([C@@H](C)O)NC(=O)[C@H](CC(N)=O)NC(=O)[C@@H](NC(C)=O)C(C)(C)SSC2(C)C)CCOCC1)C(=O)N[C@@H](CC(N)=O)C(=O)N[C@@H](Cc1cccnc1)C(=O)N(C)CC(N)=O [compound 92] (Ac-[Pen]NT[Trp(7-Me)]K(Ac)[Pen][AEF][2Nal][Thp][Lys(Me)](X7)N[3Pal][Sar]-NH2; disulfide 1-6) |
